Results from patent US20150344457A1, “METHODS OF INHIBITING PRMT5” (EPIZYME, INC., priority 2012, published 2015).

Experiments:
Z-138 cells [1] = assay: Z-138 Proliferation Assay (Cell Titer Glo, 5 days); type: cell-based; details: Homo sapiens, Table D-2
Excerpt: Z-138 Proliferation Assay
Z-138 suspension cells were purchased from ATCC (American Type Culture Collection, Manassas, Va.). RPMI/Glutamax medium, penicillin-streptomycin, heat inactivated fetal bovine serum were purchased from Life Technologies, Grand Island, N.Y., USA. V-bottom polypropylene 384-well plates were purchased from Greiner Bio-One, Monroe, N.C., USA. Cell culture 384-well white opaque plates were purchased from Perkin Elmer, Waltham, Mass., USA. Cell-Titer Gb® was purchased from Promega Corporation, Madison, Wis., USA. SpectraMax M5 plate reader was purchased from Molecular Devices LLC, Sunnyvale, Calif., USA.
Z-138 suspension cells were maintained in growth medium (RPMI 1640 supplemented with 10% v/v heat inactivated fetal bovine serum and cultured at 37° C. under 5% CO2. Under assay conditions, cells were incubated in assay medium (RPMI 1640 supplemented with 10% v/v heat inactivated fetal bovine serum and 100 units/mL penicillin-streptomycin) at 37° C. under 5% CO2.
For the assessment of the effect of compounds on the proliferation of the Z-138 cell line, exponentially growing cells were plated in 384-well white opaque plates at a density of 10,000 cells/ml in a final volume of 50 μl of assay medium. A compound source plate was prepared by performing triplicate nine-point 3-fold serial dilutions in DMSO, beginning at 10 mM (final top concentration of compound in the assay was 20 μM and the DMSO was 0.2%). A 100 nL aliquot from the compound stock plate was added to its respective well in the cell plate. […] After addition of compounds, assay plates were incubated for 5 days at 37° C., 5% CO2, relative humidity >90%.
Cell viability was measured by quantitation of ATP present in the cell cultures, adding 35 μl of Cell Titer Glo® reagent to the cell plates. Luminescence was read in the SpectraMax M5 microplate reader. The concentration of compound inhibiting cell viability by 50% was determined using a 4-parametric fit of the normalized dose response curves.

Z-138 cells [2] = assay: Z-138 Methylation Assay (In Cell Western for symmetric di-methyl arginine and DNA content); type: cell-based; details: Homo sapiens, Table D-2, read-out: ICW EC50
Excerpt: Z-138 suspension cells were purchased from ATCC (American Type Culture Collection, Manassas, Va.). RPMI/Glutamax medium, penicillin-streptomycin, heat inactivated fetal bovine serum, and D-PBS were purchased from Life Technologies, Grand Island, N.Y., USA. Odyssey blocking buffer, 800CW goat anti-rabbit IgG (H+L) antibody, and Licor Odyssey infrared scanner were purchased from Licor Biosciences, Lincoln, Nebr., USA. Symmetric di-methyl arginine antibody was purchased from EMD Millipore, Billerica, Mass., USA. 16% Paraformaldehyde was purchased from Electron Microscopy Sciences, Hatfield, Pa., USA.
Z-138 suspension cells were maintained in growth medium (RPMI 1640 supplemented with 10% v/v heat inactivated fetal bovine serum and 100 units/mL penicillin-streptomycin) and cultured at 37° C. under 5% CO2.
Cell Treatment, in Cell Western (ICW) for Detection of Symmetric Di-Methyl Arginine and DNA Content.
Z-138 cells were seeded in assay medium at a concentration of 50,000 cells per mL to a 384-well cell culture plate with 50 μL per well. Compound (100 nL) from 384 well source plates was added directly to 384 well cell plate. Plates were incubated at 37° C., 5% CO2 for 96 hours. After four days of incubation, 40 μL of cells from incubated plates were added to poly-D-lysine coated 384 well culture plates (BD Biosciences 356697). Plates were incubated at room temperature for 30 minutes then incubated at 37° C., 5% CO2 for 5 hours. After the incubation, 40 μL per well of 8% paraformaldehyde in PBS (16% paraformaldahyde was diluted to 8% in PBS) was added to each plate and incubated for 30 minutes. Plates were transferred to a Biotek 405 plate washer and washed 5 times with 100 μL per well of wash buffer (1×PBS with 0.1% Triton X-100 (v/v)). Next 30 μL per well of Odyssey blocking buffer were added to each plate and incubated 1 hour at room temperature. Blocking buffer was removed and 20 μL per well of primary antibody was added (symmetric di-methyl arginine diluted 1:100 in Odyssey buffer with 0.1% Tween 20 (v/v)) and plates were incubated overnight (16 hours) at 4° C. Plates were washed 5 times with 100 μL per well of wash buffer. Next 20 μL per well of secondary antibody was added (1:200 800CW goat anti-rabbit IgG (H+L) antibody, 1:1000 DRAQS (Biostatus limited) in Odyssey buffer with 0.1% Tween 20 (v/v)) and incubated for 1 hour at room temperature. The plates were washed 5 times with 100 μL per well wash buffer then 1 time with 100 μL per well of water. Plates were allowed to dry at room temperature then imaged on the Licor Odyssey machine which measures integrated intensity at 700 nm and 800 nm wavelengths. Both 700 and 800 channels were scanned.
First, the ratio for each well was determined by:
Each plate included fourteen control wells of DMSO only treatment (minimum inhibition) as well as fourteen control wells for maximum inhibition treated with 3 μM of a reference compound (Background wells). The average of the ratio values for each control type was calculated and used to determine the percent inhibition for each test well in the plate. Reference compound was serially diluted three-fold in DMSO for a total of nine test concentrations, beginning at 3 μM. Percent inhibition was determined and IC50 curves were generated using triplicate wells per concentration of compound.

| EC50 (Z-138 cells [2]) | Compound | EC50 (Z-138 cells [1]) |
| --- | --- | --- |
| 1000 to 10000 nM | Cn1cnc2ccc(-c3cccc(OC[C@@H](O)CN4CCc5ccccc5C4)c3)cc21 [Compound D173] | 1 to 10 µM |
| 1000 to 10000 nM | O[C@H](COc1cccc(-c2cccc3cccnc23)c1)CN1CCc2ccccc2C1 [Compound D258] | > 20 µM |
| 101 to 1000 nM | Cn1cncc1C(=O)Nc1cccc(OC[C@H](O)CN2CCc3ccccc3C2)c1 [Compound D259] | 10 to 40 µM |
| 1000 to 10000 nM | Cn1cnc2ccc(-c3ccnc(NC[C@@H](O)CN4CCc5ccccc5C4)c3)cc21 [Compound D276] | 1 to 10 µM |
